Source: paper PMC12142043, “Cell-based high-content approach for SARS-CoV-2 neutralization identifies unique monoclonal antibodies and PI3K pathway inhibitors” (Frontiers in Cell and Developmental Biology, 2025)

Tested on: SARS-CoV-2 (USA-WA1/2020) in Calu-3 cells
Type: cell-based
Settings: Calu-3, 48 h; for dsRNA signal, AU High: high dose (10 µM); for dsRNA signal, AU Low: low dose (100 nM)

| SMILES | dsRNA signal, AU High | dsRNA signal, AU Low |
| --- | --- | --- |
| Cc1cc(CN2CCN(c3c(Br)cnc4nc(-c5ccc(N6CCN(C)CC6)cc5)[nH]c34)CC2)no1 [CCT137690] | 0.0 AU | 46657.6 AU |
| CN1CCN(c2cccc(Nc3nc4c(-c5ccc(S(C)(=O)=O)cc5)cccn4n3)c2)CC1 [CEP-33779] | 12244.2 AU | 3458.4 AU |
| Cc1c(NC(=O)c2ccc(C(C)(C)C)cc2)cccc1-c1cn(C)c(=O)c(Nc2ccc(C(=O)N3CCOCC3)cc2)n1 [CGI-1746] | 34116.6 AU | 18368.1 AU |
| Nc1ncnc2n[nH]c(Nc3ccc(F)cc3)c12 [CGP 57380] | 1947.6 AU | 33084.2 AU |
| O=c1[nH]c2ccc(Cl)cc2c(N[C@@H]2CN3CCC2CC3)c1-c1nc2ccccc2[nH]1 [CHIR-124] | 9794.1 AU | 2244.6 AU |
| Cc1cnc(-c2cnc(NCCNc3ccc(C#N)cn3)nc2-c2ccc(Cl)cc2Cl)[nH]1 [CHIR-99021 (CT99021)] | 62333.9 AU | 10204.7 AU |
| O=C1NCCCc2c1oc1ccc(O)cc21 [CID 755673] | 9033.3 AU | 7582.1 AU |
| O=C(Nc1ccc(CN2CCOCC2)cc1)c1ccc(-c2cccc(Cl)c2)o1 [CID 2011756] | 3490.5 AU | 12424.4 AU |
| C=CC(=O)Nc1cccc(Nc2nc(Nc3ccc(N4CCN(C(C)=O)CC4)cc3OC)ncc2C(F)(F)F)c1 [CO-1686 (AVL-301)] | 16434.5 AU | 26200.1 AU |
| Cn1cc(C2=C(c3cccc(N)c3)C(=O)NC2=O)c2ccccc21 [CP21R7] | 5189.9 AU | 2975.5 AU |
| COc1cc2ncnc(-n3nc(-c4ccccn4)nc3N)c2cc1OC [CP-466722] | 23326.1 AU | 24439.1 AU |
| COCCOc1ccc2c(c1)ncn2-c1ccc2cccc(N3CCC(N)CC3)c2n1 [CP-673451] | 14720.6 AU | 4566.7 AU |
| COCC(=O)NC/C=C/c1ccc2ncnc(Nc3ccc(Oc4ccc(C)nc4)c(C)c3)c2c1 [CP-724714] | 1118.3 AU | 29983.8 AU |
| O=C(O)CCCCC(CCSCc1ccccc1)SCc1ccccc1 (stereo not shown) [CPI-613] | 36.8 AU | 25399.4 AU |
| CC[C@@H](N)CNc1ccnc(-c2cc(-c3cnn(C)c3)ccc2O)n1.Cl.Cl [CRT 0066101] | 0.0 AU | 45629.7 AU |
| O=C(O)c1ccc2c(c1)nc(Nc1cccc(Cl)c1)c1ccncc12 [CX-4945 (Silmitasertib)] | 35326.5 AU | 21811.4 AU |
| CN1CCCN(C(=O)c2cccc(-c3ccc(/C=C4/C(=O)Nc5ccc(Cl)cc54)o3)c2)CC1 [CX-6258] | 0.0 AU | 9957.5 AU |
| COc1cc2nccc(Oc3ccc(NC(=O)C4(C(=O)Nc5ccc(F)cc5)CC4)cc3)c2cc1OC [Cabozantinib (XL184, BMS-907351)] | 13075.8 AU | 39205.8 AU |

| SMILES | dsRNA signal, AU High | dsRNA signal, AU Low |
| --- | --- | --- |
| COc1cc2nccc(Oc3ccc(NC(=O)C4(C(=O)Nc5ccc(F)cc5)CC4)cc3)c2cc1OC.O=C(O)C[C@H](O)C(=O)O [Cabozantinib malate (XL184)] | 148.7 AU | 24276.1 AU |
| COc1cc2c(Oc3ccc4[nH]c(C)cc4c3F)ncnc2cc1OCCCN1CCCC1 [Cediranib (AZD217)] | 1359.3 AU | 15765.2 AU |
| CCS(=O)(=O)N1CCN(c2ccc(Nc3ncc(C(N)=O)c(NC4CC4)n3)cc2)CC1 [Cerdulatinib (PRT062070)] | 60131.0 AU | 21245.1 AU |
| COc1ccc2c(c[n+](C)c3c4cc5c(cc4ccc23)OCO5)c1OC [Chelerythrine Chloride] | 10306.1 AU | 22120.5 AU |
| CCN(CC)CCCC(C)Nc1ccnc2cc(Cl)ccc12 (stereo not shown) [Chloroquine diphosphate] | 4180.7 AU | 1072.6 AU |
| O=C(c1ccc(F)c(F)c1Nc1ccc(I)cc1F)N1CC(O)([C@@H]2CCCCN2)C1 [Cobimetinib] | 1412.8 AU | 21814.8 AU |
| O=C(O)c1cc(=O)c2c(OCC(O)COc3cccc4oc(C(=O)O)cc(=O)c34)cccc2o1 [Cromolyn sodium] | 64024.7 AU | 17957.1 AU |
| CC(C)(O)/C=C/C(=O)[C@](C)(O)[C@H]1[C@H](O)C[C@@]2(C)[C@@H]3CC=C4[C@@H](C=C(O)C(=O)C4(C)C)[C@]3(C)C(=O)C[C@]12C [Cucurbitacin I] | 39627.9 AU | 39750.1 AU |
| C=C1C[C@@]2(O)O[C@@]3(C[C@H]2C(C)C)[C@@H](C)CC[C@@H]13 [Curcumol] | 0.0 AU | 41441.3 AU |
| C[C@@H]1C(=O)O[C@H](C)[C@H]1C[C@@H](O)[C@](C)(O)[C@H]1CC[C@@]2(O)C3=CC(=O)[C@@H]4C[C@@H](O)[C@@H](O)C[C@]4(C)[C@H]3CC[C@]12C [Cyasterone] | 81.6 AU | 11248.2 AU |
| NC(=O)c1ccc(-c2nc(-c3ccc4c(c3)OCCO4)c(-c3ccccn3)[nH]2)cc1 [D4476] | 6178.6 AU | 10405.5 AU |
| Nc1cccc(S(=O)(=O)N2CCCN(S(=O)(=O)c3ccc4c(c3)OCCO4)CC2)c1 [DASA-58] | 7492.3 AU | 8577.3 AU |
| NC(=O)c1ccccc1Nc1ccnc(Nc2cccc(O)c2)n1 [DB07268] | 10652.5 AU | 37894.5 AU |
| O=C(O)C(Cl)Cl [DCA] | 2582.6 AU | 13605.1 AU |
| CCn1c(=O)c(-c2cc(NC(=O)Nc3ccccc3)c(F)cc2Br)cc2cnc(NC)cc21 [DCC-2618] | 31390.7 AU | 17341.0 AU |
| O=C(NCCN1CCCC1)c1cc(-c2ccc(CN3CCOCC3)cc2)nc2ccc(F)cc12 [DDD107498] | 38942.1 AU | 5409.3 AU |
| CC(C)Oc1ccc(-c2cnc3c(-c4ccnc5ccccc45)cnn3c2)cc1 [DMH-1] | 13545.0 AU | 45359.2 AU |
